According to paper PMC4827351 (Chemical Science, 2015):

Experiments:
[1] = tested on: L. monocytogenes ATCC 19115; test: Cuvette-based bacterial agglutination assay; assay type: cell-based, Listeria monocytogenes; details: n = 3
From the text: We previously reported a simple cuvette-based in vitro agglutination assay that enables time-dependent monitoring of agglutination of viable bacteria by HD6.[15] We employed this assay to further characterize the trypsin-dependent activity of proHD6 on cultured bacterial cells (Fig. 4a and b). […] In these assays, we defined the “supernatant” as the culture solution in the top portion of the cuvette and the “re-suspension” as the mixture that results from agitating the entire culture after the 6 h incubation period.[15] We observed an ≈1.5-fold log reduction in CFU mL^–1 for the “supernatant” from cultures treated with combination of trypsin and proHD6 relative to the no-peptide control (Fig. 4c). Following “re-suspension”, the total CFU mL^–1 in the cuvette was indistinguishable from that of either the untreated control culture or the bacterial culture treated with proHD6.
Fig. 4 Bacterial agglutination assays for native and cleaved proHD6. (a) Agglutination of E. coli ATCC 25922 and L. monocytogenes ATCC 19115 in 50% MHB treated with proHD6 in the absence and presence of 0.4 μM trypsin or HD6 (control). (b) Representative images of cuvettes containing E. coli ATCC 25922 or L. monocytogenes ATCC 19115 after incubation with 20 μM peptides for 2 h at room temperature. (c) Plots of colony forming units (CFU mL^–1) of E. coli ATCC 25922 and L. monocytogenes ATCC 19115 after treatment with 20 μM peptides for 6 h (mean ± SDM, n = 3). Supernatant is defined as the clarified medium solution in the top portion of the culture and resuspension is defined as the mixture after thoroughly agitating the heterogeneous solution.
Stock solutions (50 μL) of HD6 and proHD6 (0, 50, 100, and 200 μM; 10× concentrations) were prepared in sterile Milli-Q water. If trypsin was required, aliquots of a 1 mg mL^–1 stock solution of TPCK-treated trypsin (Worthington) prepared in sterile Milli-Q water were added to solutions of proHD6 to afford a final trypsin concentration of 0.01 mg mL^–1. The assays were then conducted following the reported procedure.[15] […]

[2] = Sedimentation velocity analytical ultracentrifugation; assay type: physicochemical; details: SV-AUC; for s20,w: 42 000 rpm, 20 °C, A280, DCDT+; for MW (best-fit molecular mass) / D: DCDT+
Method: The experiments were set up as previously reported.[15] In one set of experiments, 10× concentrated proHD6 solutions in Milli-Q water (≈40 μL) were transferred to microcentrifuge tubes and lyophilized to dryness. […] The pH of each solution was measured to confirm that it remained unchanged. The samples were centrifuged at 42 000 rpm and 20 °C until sedimentation was complete. The absorption wavelength for optical detection was 280 nm. All SV experiments were conducted with at least two independently prepared and purified samples of each peptide and in at least two independent trials.
Additional SV experiments were conducted to evaluate the effect of buffer components on the sedimentation of proHD6. In all cases, the proHD6 samples (400 μL) were prepared as described above except that proHD6 was dissolved in 10 mM Tris–HCl or HEPES pH 7.4 to obtain a final peptide concentration of 50 μM.
The experimental sedimentation coefficients were calculated by fitting the time derivative of the sedimentation velocity (–dc/dt) data using DCDT+.[29],[54] The –dc/dt distribution was generated from 22 to 28 scans with a peak broadening limit of 40 kDa by using DCDT+.
Table S4. Calculated sedimentation coefficients of proHD6.a
Concentration Buffer pH s20,w (S) D (F) MW (kDa) Partial Specific
(µM) (10 mM) Volume (mL/g) […]
a All samples were prepared in the indicated buffer; NaP is sodium phosphate. The temperature was 20 °C. Data were obtained by analysis with the dc/dt method implemented in DCDT+ using 22- 28 scans with 40 kDa diffusion broadening maximum. Sedimentation coefficients are s20,w values, adjusted with a solvent density (ρ) of 0.99967 g/mL and a solvent viscosity (η) of 1.0061 cP. Viscosity units are in centipoise (cP) (1 poise = 1 gŸ[…]cm-1Ÿ[…]s-1). Sedimentation coefficients are in svedbergs (1 svedberg = 100 fs = 1 x 10-13 s). Diffusion coefficients correspond to the best-fit molecular mass in Fick units (1 Fick = 1 x 10-7 cm2/s). HEPES has a solvent density (ρ) of 0.99901 g/mL and a solvent viscosity (η) of 1.0104 cP at 20 °C. Tris-HCl has a solvent density (ρ) of 0.99851 g/mL and a solvent viscosity (η) of 1.0037 cP at 20 °C. The solvent densities, viscosities, and the partial specific volume values of proHD6 monomer and dimer were […]

[3] = proHD6 30 µM, 10 mM NaP pH 7.4, first 30 µM line
[4] = proHD6 30 µM, 10 mM NaP pH 7.4, second 30 µM line
[5] = proHD6 30 µM, 10 mM NaP pH 7.4, third 30 µM line
[6] = proHD6 50 µM, 10 mM HEPES pH 7.4
[7] = proHD6 50 µM, 10 mM NaP pH 7.4, first 50 µM line
[8] = proHD6 50 µM, 10 mM NaP pH 7.4, second 50 µM line
[9] = proHD6 50 µM, 10 mM Tris-HCl pH 7.4
[10] = proHD6 100 µM, 10 mM NaP pH 7.4
[11] = proHD6 120 µM, 10 mM NaP pH 7.4
[12] = proHD6 140 µM, 10 mM NaP pH 7.4

EPLQAEDDPLQAKAYEADAQEQRGANDQDFAVSFAEDASSSLRALGSTRAFTCHCRRSCYSTEYSYGTCTVMGINHRFCCL (disulfide (positions not given here)) [proHD6, 81-residue propeptide of human α-defensin 6, recombinant, from His6-SUMO-proHD6]
total CFU mL^-1 after re-suspension versus untreated control culture or culture treated with proHD6 ([1]; 20 µM proHD6 + trypsin, 6 h, entire culture agitated): indistinguishable
agglutination of bacterial culture in cuvette, with trypsin ([1]; proHD6 + 0.4 µM (0.01 mg/mL) trypsin, 10^8 CFU mL^-1, 50% MHB, room temperature): bacterial agglutination and sedimentation occurred
agglutination of bacterial culture in cuvette ([1]; proHD6 up to 20 µM, no trypsin, 10^8 CFU mL^-1, 50% MHB, 6 h, room temperature): remained homogeneous
s20,w [2, 3]: 1.727 S
s20,w [2, 4]: 1.798 S
s20,w [2, 5]: 1.733 S
s20,w [2, 6]: 1.763 S
s20,w [2, 7]: 1.844 S
s20,w [2, 8]: 1.865 S
s20,w [2, 9]: 1.783 S
s20,w [2, 10]: 1.843 S
s20,w [2, 11]: 1.769 S
s20,w [2, 12]: 1.751 S
MW (best-fit molecular mass) [2, 3]: 14.3 kDa
D ([2]; proHD6 30 µM, 10 mM NaP pH 7.4, first 30 µM line, 1 Fick = 1 x 10-7 cm2/s): 9.83 F
D [2, 4]: 11.5 F
MW (best-fit molecular mass) [2, 4]: 12.8 kDa
D [2, 5]: 9.73 F
MW (best-fit molecular mass) [2, 5]: 14.5 kDa
D [2, 6]: 9.94 F
MW (best-fit molecular mass) [2, 6]: 14.4 kDa
D [2, 7]: 10.4 F
MW (best-fit molecular mass) [2, 7]: 14.4 kDa
D [2, 8]: 10.3 F
MW (best-fit molecular mass) [2, 8]: 14.8 kDa
D [2, 9]: 8.97 F
MW (best-fit molecular mass) [2, 9]: 16.1 kDa
D [2, 10]: 13.8 F
MW (best-fit molecular mass) [2, 10]: 10.9 kDa
D [2, 11]: 9.16 F
MW (best-fit molecular mass) [2, 11]: 15.7 kDa
D [2, 12]: 9.47 F
MW (best-fit molecular mass) [2, 12]: 15.0 kDa
